Experimental data published in patent US9078915B2, “Prostate carcinogenesis predictor” (University of South Florida, priority 2007, dated 2015).

How the values were obtained:
DU-145 cells = test: Cell viability, trypan blue exclusion assay, DU-145; format: cell-based, human
Protocol: (§1) The siRNAs complexes were made according to the following procedures: 60 μl of siRNAs (10 μM stock solution) were combined with 60 μl of tranfection reagent and incubated at room temperature for 30 minutes to make the siRNA complex. The siRNA complex was then added to twenty four hours post plated cells giving a final concentration of 50 nM of siRNA complex in complete media. The cells were incubated with either siRNA-A, or PKC-ι, PKC-ζ, and PKC-δ siRNA (50 nM for RWPE-1, 100 nM for LNCaP and 150 nM for DU-145 respectively). Following treatments, the cells were washed with phosphate buffered saline (PBS), trypsinized and resuspended in 2-3 ml of PBS.
(§2) Cell viability was quantified using trypan blue exclusion assay and the numbers of unstained cells were counted as mentioned above. Three independent experiments were carried out for each treatment with controls. Cell viability was determined relative to vehicle control using the mean and SD for each time point. Statistical determination by Student's T test using Minitab program (Minitab Inc. State College, Pa.).
(§3) Subconfluent RWPE-1 (A), LNCaP (B) and DU-145 (C) cells (2.5×10^5) were treated with PKC-ι siRNA (50 nM for RWPE-1, 100 nM for LNCaP and 150 nM for DU-145) complex from 24-72 h as described in “Materials and Methods.” At the indicated time, the viable cells were counted using trypan blue exclusion assay and a hematocyometry. Three independent experiments were performed and the mean of the viable cells and SD were plotted. After titrating PKC-ι siRNA concentrations from 50-100 nM, we used an optimal concentration of PKC-ι siRNA (50 nM) and control siRNA to suppress PKC-ι expression. […]
(§4) Cell lysates (50 μg) of an exponentially growing DU-145 cells were immunoprecipitated with either rabbit polyclonal PKC-ι antibody and/or IKKα/β rabbit polyclonal antibody. […] After incubation for 24-72 hours with ICA-1 (0.1 μM-60 μM), both the control cells and ICA-1 treated cells were trypsinized and viable cells were counted using trypan blue exclusion assay and a hematocytometry. […]

LNCaP cells = test: Cell viability, trypan blue exclusion assay, LNCaP; format: cell-based, human
Protocol: as §1, §2, §3, §4

PKC-ι = target: T1, PKC-ι (Homo sapiens, UniProt P41743); test: Kinase assay: phosphorylation of IKKα/β by immunoprecipitated PKC-ι from DU-145 cells; format: biochemical; details: ICA-1 100 nM, co-immunoprecipitated PKC-ι and IKKα/β
T1 construct: Cell lysates (50 μg) of an exponentially growing DU-145 cells were immunoprecipitated with either rabbit polyclonal PKC-ι antibody; endogenous in cells; host or cells: DU-145 (whole cell lysate, immunoprecipitate on anti-rabbit IgG-agarose beads)
T1 sequence (P41743 1-596): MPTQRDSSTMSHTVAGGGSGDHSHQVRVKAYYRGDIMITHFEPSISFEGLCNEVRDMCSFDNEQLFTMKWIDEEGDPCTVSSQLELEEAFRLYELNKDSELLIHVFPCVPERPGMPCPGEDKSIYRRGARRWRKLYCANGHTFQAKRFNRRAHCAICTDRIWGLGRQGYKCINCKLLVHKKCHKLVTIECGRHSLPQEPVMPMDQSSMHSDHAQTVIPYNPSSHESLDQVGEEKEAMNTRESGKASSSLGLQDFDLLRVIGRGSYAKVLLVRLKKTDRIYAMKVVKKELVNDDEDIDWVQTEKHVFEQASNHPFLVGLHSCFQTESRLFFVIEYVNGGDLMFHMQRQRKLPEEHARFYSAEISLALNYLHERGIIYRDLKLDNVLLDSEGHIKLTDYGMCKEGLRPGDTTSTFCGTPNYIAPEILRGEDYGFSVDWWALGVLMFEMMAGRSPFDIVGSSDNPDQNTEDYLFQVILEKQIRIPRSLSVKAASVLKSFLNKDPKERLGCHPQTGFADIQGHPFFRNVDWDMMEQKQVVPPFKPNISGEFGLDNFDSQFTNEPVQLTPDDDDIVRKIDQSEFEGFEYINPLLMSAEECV
Protocol: DU-145 cells (3.75×10^5) were grown as a monolayer in T75 flasks overnight. Whole cell lysates of (100 μg) were immunoprecipitated as follows: cell lystaes (50 μg) were pre-cleared for 30 min at 4° C. with anti-rabbit IgG-agarose beads (1:1 v/v, 10 μl) (catalog number A8914; Sigma Aldrich) and incubated with 5 μg of PKC-ι rabbit polyclonal antibody and/or IKKα/β rabbit polyclonal antibody (5 μg) overnight at 4° C. and then a further 1 h with anti-rabbit IgG-agarose beads (1:1 v/v, 50 μl). The immunoprecipitated samples were incubated with kinase buffer (50 μl of 3.03 mg/10 ml ATP, 30 mM of Tris p.H 7.4, 50 μl of 5 μg phosphotidylserine) at 30° C. in a water bath for 5 minutes. The reaction was terminated by placing the samples in ice. The PKC-ι inhibitor 1H-imidazole-4-carboxamide, 5-amino-1-[2,3-dihydroxy-4-[(phosphonooxy)methyl]cyclopentyl]-, [1R-(1a, 2b, 3b, 4a)] (ICA-1; 100 nM) was synthesized by Southern Research Institute (Birmingham, Ala.). […]
as §4

Structure (SMILES): NC(=O)c1ncn(C2CC(COP(=O)(O)O)C(O)C2O)c1N (stereo not drawn) [ICA-1, 1H-imidazole-4-carboxamide, 5-amino-1-[2,3-dihydroxy-4-[(phosphonooxy)methyl]cyclopentyl]-, [1R-(1a, 2b, 3b, 4a)]]
- inhibition of cell proliferation (DU-145 cells; DU-145, ICA-1 0.1 μM-60 μM, 24-72 hours): does not significantly (p>0.05 for both cell lines) inhibit
- cell numbers at low concentration (DU-145 cells; DU-145, ICA-1 0.1-0.5 μM): increase in cell numbers
- cell growth at high concentration (DU-145 cells; DU-145, ICA-1 10-60 μM): inhibition of cell growth
- inhibition of cell proliferation (LNCaP cells; ICA-1 0.1 μM-60 μM, 24-72 hours): does not significantly (p>0.05 for both cell lines) inhibit
- cell numbers at low concentration (LNCaP cells; ICA-1 0.1-0.5 μM): increase in cell numbers
- cell growth at high concentration (LNCaP cells; ICA-1 10-60 μM): inhibition of cell growth
- phosphorylation of IKKα/β (Ser176/180) by PKC-ι (PKC-ι): inhibited
